Biological target: T1, b-Raf V600E (Homo sapiens, UniProt P15056, V600E)
T1 construct: recombinant human b-Raf residues 416-end containing a V600E mutation; purchased Upstate 14-5M; host or cells: baculovirus, Sf21 insect cells
Experiment: b-Raf V600E mutant HTRF assay with 6H-MEK as substrate (dose response)
Type: biochemical
Details: kinase enzyme inhibition, 6H-MEK substrate, read-out: bRaf(V600E) IC50
Procedure: Kinase Enzyme Inhibition Assay (IC50)
• Enzyme: recombinant human b-Raf residues 416-end with N-terminal GST-tag from Upstate; (expressed by baculovirus in Sf21 insect cells), 0.26 mg/mL (3.87 μM assuming a molecular weight of 67.2 kD) Cat. #14-530M, Lot #25502AU, stored at −80° C. • Substrate: WT full-length 6H-MEK, 4.94 mg/mL (154.4 μM assuming a MW of 32 kD) stored at −15° C. • Antibodies: Rabbit (α-P-(Ser 217/221)-MEK-1/2 Ab (from Cell Signaling, Cat. #9121B, Lot 14); Eu-(α-rabbit IgG (from Wallac, Cat. #AD0083, Lot 318663, 710 ug/mL, 4.4 μM); (α-6H-SureLight-APC (from Martek, Cat. #AD0059H, Lot E012AB01, 3.03 μM). • Reader: Envision from PerkinElmer, HTRF reading mode with 412 mirror • Assay Plate: Matrix all-black polypropylene plates (Cat. #4344) • Others: Weidman 384 polypropylene plates (REMP) for compound plate. Assay Procedure: • (1) Prepare Kinase Assay Buffer (KAB): 50 mM HEPES (HyClone) pH7, 10 mM MgCl2, 1 mM DTT, 0.1 mM […], and 0.3 mg/ml BSA. • (2) Prepare 6H-MEK (150 nM) in KAB. Add 12 μL/well to the assay plate. • (3) Prepare ATP (66 μM) in KAB. • (4) Dilute compounds to 2.4 mM and any positive controls to 480 μM in DMSO. Perform 10-point 3× dilution in DMSO. Withdraw 2.5 μL/well of DMSO solution and add to 27.5 μL/well ATP solution in (3). • (5) Mix, then add 6 μL/well of solution in (4) to the assay plate for a DMSO concentration of 2.1% during MEK phosphorylation. • (6) Prepare b-Raf WT (100 μM) in KAB. • (7) Add 6 μL/well of KAB in columns 1-2 and 6 μL/well of b-Raf WT in columns 3-24. • (8) Incubate at 37° C. for 30 min. • (9) Prepare rabbit (α-P-(Ser 217/221 )-MEK-1/2 Ab (1:200 from stock) in AB1: 50 mM HEPES pH7, 0.2 mg/ml BSA, and 43 mM EDTA. • (10) To stop reaction, add 6 μL/well of solution from (9) to the assay plate and incubate at 37° C. for 30 min. • (11) Prepare Eu-(α-rabbit IgG (9 nM) and (α-6H-SureLight-APC (180 nM) in AB2: 50 mM HEPES pH7 and 0.2 mg/mL BSA. • (12) Add 6 μL/well of solution from (11) to the assay plate. • (13) For determining the spectrum cross talk factor, prepare 2 samples following steps (1) to (10). For the blank sample, add 6 μL/well of AB2. For the cross talk factor sample, add 6 μL/well of Eu-anti rabbit IgG (9 nM). • (14) Incubate at room temperature for 1.5 hours. • (15) Read HTRF signals at 615 nm and 665 nm on the Envision. Normalize HTRF signals after spectrum cross-talk correction. b-Raf V600E Mutant HTRF Assay With 6H-MEK as Substrate (Dose Response) Assay Principle:
The assay utilizes 6H-MEK as the substrate. Upon b-Raf V600E phosphorylation, phosphorylated 6H-MEK is detected with rabbit anti-phospho-MEK1/2, Eu-labeled anti-rabbit, and APC-labeled anti-6H antibodies.
Reagents and Instruments:
• Enzyme: recombinant human b-Raf residues 416-end containing a V600E mutation with N-terminal GST-tag from Upstate; (expressed by baculovirus in Sf21 insect cells), 0.26 mg/mL ([…] assuming a molecular weight of 67.3 kD) Cat. #14-5M, Lot #25633AU, stored at −80° C. • Substrate: WT full-length 6H-MEK, 4.94 mg/mL (154.4 μM assuming a MW of 32 kD) stored at −15° C. • Antibodies: Rabbit (α-P-(Ser 217/221)-MEK-1/2 Ab (from Cell Signaling, Cat. #9121B, Lot 14); Eu-(α-rabbit IgG (from Wallac, Cat. #AD0083, Lot 318663, 710 ug/mL, 4.4 μM); (α-6H-SureLight-APC (from Martek, Cat. #AD0059H, Lot E012AB01, 3.03 μM). • Reader: Envision from PerkinElmer, HTRF reading mode with 412 mirror • Assay Plate: Matrix all-black polypropylene plates (Cat. #4344) • Others: Weidman 384 polypropylene plates (REMP) for compound plate. Assay Procedure: • (1) Prepare Kinase Assay Buffer (KAB): 50 mM HEPES (HyClone) pH7, 10 mM MgCl2, 1 mM DTT, 0.1 mM […], and 0.3 mg/ml BSA. • (2) Prepare 6H-MEK (150 nM) in KAB. Add 12 μl/well to the assay plate. • (3) Prepare ATP (66 μM) in KAB. • (4) Dilute compounds to 2.4 mM and positive controls to 480 μM in DMSO. • Perform 10-point 3× dilution in DMSO. […]

T1 sequence (P15056 416-766 V600E): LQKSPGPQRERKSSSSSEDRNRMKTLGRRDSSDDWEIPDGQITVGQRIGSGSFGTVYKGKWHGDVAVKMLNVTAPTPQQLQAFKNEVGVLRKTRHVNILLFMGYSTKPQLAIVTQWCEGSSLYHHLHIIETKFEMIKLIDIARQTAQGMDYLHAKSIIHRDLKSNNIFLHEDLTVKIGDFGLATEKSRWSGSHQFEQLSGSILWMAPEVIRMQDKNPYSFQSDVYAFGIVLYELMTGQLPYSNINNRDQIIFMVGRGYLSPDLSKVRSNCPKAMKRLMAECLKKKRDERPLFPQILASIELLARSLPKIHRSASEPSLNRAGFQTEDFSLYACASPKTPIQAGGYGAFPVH

Row | IC50 [µM] | SMILES
1 | > 10 | Cc1nnc(-c2ccc(C)c(OCc3nn(C)c4ncnc(N)c34)c2)o1 [Example 21, 1-Methyl-3-[2-methyl-5-(5-methyl-[1,3,4]oxadiazol-2-yl)-phenoxymethyl]-1H-pyrazolo[3,4-d]pyrimidin-4-ylamine]
2 | < 10 | Cc1ccc(OCc2ccc(Cl)cc2)cc1OCc1nn(C)c2ncnc(N)c12 [Example 19, 3-[5-(4-Chloro-benzyloxy)-2-methyl-phenoxymethyl]-1-methyl-1H-pyrazolo[3,4-d]pyrimidin-4-ylamine]
3 | < 10 | Cc1ccc(NC(=O)c2ccc(NCCO)c(Cl)c2)cc1OCc1nn(C)c2ncnc(N)c12 [Example 9, N-[3-(4-Amino-1-methyl-1H-pyrazolo[3,4-d]pyrimidin-3-ylmethoxy)-4-methyl-phenyl]-3-chloro-4-(2-hydroxy-ethylamino)-benzamide]
4 | > 10 | Cc1noc(-c2ccc(C)c(OCc3nn(C)c4ncnc(N)c34)c2)n1 [Example 13, 4-Amino-1-1-methyl-3-[2-methyl-5-(3-methyl-[1,2,4]oxadiazol-5-yl)-phenoxymethyl]-1H-pyrazolo[3,4-d]pyrimidine]
5 | < 10 | Cc1ccc(NC(=O)c2cccc(Cl)c2)cc1OCc1nn(C)c2ncnc(N)c12 [Example 11, N-[3-(4-Amino-1-methyl-1H-pyrazolo[3,4-d]pyrimidin-3-ylmethoxy)-4-methyl-phenyl]-3-chloro-benzamide]
6 | > 10 | Cn1nc(COc2cccc(OCc3ccccc3)c2)c2c(N)ncnc21 [Example 7, 3-(3-Benzyloxy-phenoxymethyl)-1-methyl-1H-pyrazolo[3,4-d]pyrimidin-4-ylamine]
7 | < 10 | Cc1ccc(OCc2ccccc2)cc1OCc1nn(C)c2ncnc(N)c12 [Example 15, 3-(5-Benzyloxy-2-methyl-phenoxymethyl)-1-methyl-1H-pyrazolo[3,4-d]pyrimidin-4-ylamine]
8 | < 10 | Cc1ccc(C(=O)Nc2ccc(Cl)cc2)cc1OCc1nn(C)c2ncnc(N)c12 [Example 17, 3-(4-Amino-1-methyl-1H-pyrazolo[3,4-d]pyrimidin-3-ylmethoxy)-N-(4-chloro-phenyl)-4-methyl-benzamide]

From patent publication US7968554B2, “Pyrazolo[3,4-d]pyrimidine derivatives” (Hoffman-La Roche Inc., priority 2007, dated 2011)
